Where two headings read alike, the source gives them in different places.
Legend:
MNK2 = MNK2 (Homo sapiens, UniProt Q9HBH9); experiment: MNK2 inhibition, in vitro studies at Reaction Biology Corporation; assay type: biochemical; conditions: 50 nM compound, 10 uM ATP
[1] = target: T1, AXL receptor tyrosine kinase (AXL) (Homo sapiens, UniProt P30530); experiment: KINOMEscan competition binding assay (Eurofins DiscoverX), AXL
T1 construct: purchased Eurofins DiscoverX (KINOMEscan service)
T1 sequence (P30530 26-894): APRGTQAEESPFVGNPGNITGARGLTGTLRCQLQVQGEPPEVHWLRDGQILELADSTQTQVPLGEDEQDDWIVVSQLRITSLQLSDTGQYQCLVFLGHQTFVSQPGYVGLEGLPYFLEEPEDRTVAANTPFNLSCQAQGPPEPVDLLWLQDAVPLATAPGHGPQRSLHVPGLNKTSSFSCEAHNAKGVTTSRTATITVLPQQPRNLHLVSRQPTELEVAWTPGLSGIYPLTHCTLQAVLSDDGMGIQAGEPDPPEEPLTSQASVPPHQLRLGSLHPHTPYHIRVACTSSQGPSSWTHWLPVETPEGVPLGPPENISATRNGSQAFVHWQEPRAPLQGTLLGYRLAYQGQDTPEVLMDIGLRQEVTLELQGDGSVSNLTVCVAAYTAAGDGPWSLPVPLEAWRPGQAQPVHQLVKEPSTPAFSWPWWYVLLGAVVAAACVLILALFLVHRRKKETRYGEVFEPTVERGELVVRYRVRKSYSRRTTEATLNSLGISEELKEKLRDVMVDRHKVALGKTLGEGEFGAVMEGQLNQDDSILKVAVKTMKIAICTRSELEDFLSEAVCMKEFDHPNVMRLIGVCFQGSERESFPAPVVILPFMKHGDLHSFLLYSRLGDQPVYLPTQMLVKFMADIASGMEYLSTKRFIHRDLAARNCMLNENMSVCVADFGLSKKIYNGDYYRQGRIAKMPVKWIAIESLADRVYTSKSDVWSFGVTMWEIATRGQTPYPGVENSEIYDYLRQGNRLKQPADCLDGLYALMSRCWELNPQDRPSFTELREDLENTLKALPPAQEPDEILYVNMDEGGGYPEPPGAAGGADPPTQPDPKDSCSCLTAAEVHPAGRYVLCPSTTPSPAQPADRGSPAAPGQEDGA
Protocol: The affinity of several compounds hereof having a substituent on the imidazo[1,2-b]pyridazine moiety at position-6, wherein the substituent comprised one or more ring moieties was evaluated with respect to two TAM kinases: AXL and MERTK. […] The assay uses DNA-tagged kinase, an immobilized ligand, and the test compound. Quantitative polymerase chain reaction (PCR) of the DNT tag was then used to measure the ability of the tested compound to displace the immobilized ligand.

Caki-1 (renal cancer) = experiment: Growth inhibition of Caki-1 (NCI-60 human tumor cell line screen); assay type: cell-based; conditions: 200 nM
[2] = tested on: MDA-MB-231 (breast cancer); experiment: Growth inhibition of MDA-MB-231 (NCI-60 human tumor cell line screen); assay type: cell-based
[3] = tested on: multiple myeloma cell lines; experiment: Inhibition of multiple myeloma cell lines; assay type: cell-based, human; conditions: FIG. 4
[4] = Oral bioavailability study in mice; assay type: in vivo, Male CD1 Mice; conditions: 10 mg/Kg, FIG. 5
Protocol: The bioavailability and Cmax of the ring-6-substituted imidazo[1,2-b]pyridazine compounds were also assessed.
Briefly, compounds were dissolved in 10% dimethylsulfoxide (DMSO)/90% (20% HP-β-CD in water (w/w)). Male CD1 Mice (n=3) were dosed orally with 10 mg/Kg of each compound (HSND80, HSND41, HSND101, HSND102, HSND141, and HSND156). Blood was sampled at 0.25 hours, 0.5 hour, 1 hour, 2 hours, 4 hours, 8 hours, and 24 hours post dose, and the concentration of compound in blood at each specific time point was determined via liquid chromatography-mass spectrometry (LC-MS) (high-performance liquid chromatography (HPLC) instrument: Shimadzu; MS instrument: AB API 5500 LC/MS/MS; Column: HALO C18 90 A 2.7 μm (30*2.1 mm); Mobile phase A: 5% Acetonitrile in Water (0.1% Formic acid); Mobile phase B: 95% Acetonitrile in Water (0.1% Formic acid)).

CT-26 C2 tumor cells = experiment: CT-26 in vivo tumor reduction; set-up: species or system BALB/c female mouse; conditions: CT-26, day 17 from start of dosing, oral QD
Protocol: Each BALB/c female mouse was inoculated subcutaneously at the right flank with CT-26 C2 tumor cells (0.3×10^6/mouse) in 0.1 mL PBS for tumor development. Treatments for the efficacy study were started on day 10 after tumor inoculation when the average tumor size reached approximately 71 mm^3. Each group consisted of 6 tumor-bearing mice. Vehicle control was 25 mM citrate buffer (pH 2.5). HSND80 was dosed orally QD at 15 mg/Kg for 4 days and 10 mg/Kg afterwards. HSND100 was dosed at 15 mg/Kg. Mice were dosed 5 days on and 2 days off (drug holiday). Tumors were measured every other day (L, W, H) to give tumor volume in mm^3.

Sequence of MNK2 (Q9HBH9 whole entry): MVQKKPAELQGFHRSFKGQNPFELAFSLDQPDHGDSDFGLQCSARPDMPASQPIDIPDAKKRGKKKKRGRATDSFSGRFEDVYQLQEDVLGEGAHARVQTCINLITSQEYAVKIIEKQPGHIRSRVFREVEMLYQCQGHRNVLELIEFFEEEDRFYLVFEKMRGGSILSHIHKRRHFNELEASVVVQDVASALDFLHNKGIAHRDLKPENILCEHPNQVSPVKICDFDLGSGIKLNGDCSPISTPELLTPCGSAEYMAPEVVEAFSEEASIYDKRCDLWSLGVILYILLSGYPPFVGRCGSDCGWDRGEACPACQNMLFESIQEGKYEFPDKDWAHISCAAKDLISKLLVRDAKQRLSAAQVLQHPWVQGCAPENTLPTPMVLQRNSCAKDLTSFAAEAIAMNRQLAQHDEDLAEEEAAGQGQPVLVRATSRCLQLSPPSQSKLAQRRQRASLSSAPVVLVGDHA

C[C@@H]1CN(c2ccc3ncc(C#Cc4cncc(C(=O)Nc5ccc(CN6CCN(C)CC6)c(C(F)(F)F)c5)c4)n3n2)C[C@H](C)O1 [HSND80, 5-((6-((2S,6R)-2,6-Dimethylmorpholino)imidazo[1,2-b]pyridazin-3-yl)ethynyl)-N-(4-((4-methylpiperazin-1-yl)methyl)-3-(trifluoromethyl)phenyl)nicotinamide]
inhibition at 0.05 µM (MNK2): 96%
Kd ([1]; FIG. 6A, replicate 1, read-out: Kd AXL, replicate 1): 0.77 nM
Kd ([1]; FIG. 6B, replicate 2, read-out: Kd AXL, replicate 2): 1.3 nM
Kd ([1]; Table 1, DiscoverX Eurofins, read-out: Kd AXL): 1.1 nM
inhibition at 0.2 µM (Caki-1 (renal cancer)): 100%
inhibition at 0.2 µM ([2]; 200 nM): 100%
IC50 ([2]; 72 hours): 8.6 nM
inhibition of multiple myeloma cell lines [3]: potently inhibited
bioavailability [4]: more bioavailablity than unsubstituted morpholine (compound HSND41)
tumor reduction compared to vehicle control (CT-26 C2 tumor cells): 45%

— US20250243203A1, “NICOTINAMIDE- AND BENZAMIDE-BASED COMPOUNDS, CONJUGATES, AND COMPOSITIONS AS INHIBITORS OF TRANSLATIONAL- AND TRANSCRIPTIONAL-RELATED KINASES” (PURDUE RESEARCH FOUNDATION, priority 2022, published 2025)
